Measurements: patent US9499729B2, “Compositions and methods containing fluorine substituted olefins” (HONEYWELL INTERNATIONAL INC., priority 2006, dated 2016)
One block for each compound: values may come before it.

How the values were obtained:
[1] = Solubility of Artemisinin in the extractant, solvent added to weighed sample until dissolved; assay type: physicochemical
Text: A medicament, particularly a plant-derived Artemisinin which is an anti-malarial drug, is extracted from the Artemisia annua plant. A sample of Artemisinin was weighed into a vial.

[2] = Compatibility/stability of refrigerant with lubricating oil in contact with aluminum, copper and steel coupons, sealed tube, one week, visual observation; assay type: physicochemical; details: one week at 350° C., liquid contents turn black
Protocol: The compatibility of the refrigerant compounds and compositions of the present invention with PAG lubricating oils while in contact with metals used in refrigeration and air conditioning systems is tested at 350° C., representing conditions much more severe than are found in many refrigeration and air conditioning applications.
Aluminum, copper and steel coupons are added to heavy walled glass tubes. Two grams of oil are added to the tubes. The tubes are then evacuated and one gram of refrigerant is added. The tubes are put into an oven at 350° F. for one week and visual observations are made. At the end of the exposure period, the tubes are removed.
This procedure was done for the following combinations of oil and the compound of the present invention: • a) HFC-1234ze and GM Goodwrench PAG oil • b) HFC1243 zf and GM Goodwrench oil PAG oil • c) HFC-1234ze and MOPAR-56 PAG oil • d) HFC-1243 zf and MOPAR-56 PAG oil • e) HFC-1225 ye and MOPAR-56 PAG oil.
Aluminum, copper and steel coupons are added to a heavy walled glass tube with mineral oil and CFC-12 and heated for one week at 350° C., as in Example 3. At the end of the exposure period, the tube is removed and visual observations are made.

[3] = Toxicity as stated by applicants (no method given)
[4] = Flammability / flammability limit (ASTM E-681); assay type: physicochemical
Protocol: Flammability is another important property for many applications. That is, it is considered either important or essential in many applications, including particularly in heat transfer and blowing agent applications, to use compositions which are of low flammability or are non-flammable. Thus, it is frequently beneficial to use in such compositions compounds which are nonflammable. As used herein, the term “nonflammable” refers to compounds or compositions which are determined to be nonflammable as determined in accordance with ASTM standard E-681, dated 2002, which is incorporated herein by reference. Unfortunately, many HFC's which might otherwise be desirable for used in refrigerant or foam blowing agent compositions are not nonflammable. For example, the fluoroalkane difluoroethane (HFC-152a) and the fluoroalkene 1,1,1-trifluorpropene (HFO-1243zf) are each flammable and therefore not viable for use in many applications.

[5] = Miscibility with refrigeration lubricants, sealed glass tubes, visual observation of liquid phases; assay type: physicochemical
Protocol: The miscibility of HFO-1225ye and HFO-1234ze with various refrigeration lubricants is tested. […] For each refrigerant/oil combination, three compositions are tested, namely 5, 20 and 50 weight percent of lubricant, with the balance of each being the compound of the present invention being tested
The lubricant compositions are placed in heavy-walled glass tubes. The tubes are evacuated, the refrigerant compound in accordance with the present invention is added, and the tubes are then sealed. The tubes are then put into an air bath environmental chamber, the temperature of which is varied from about −50° C. to 70° C. At roughly 10° C. intervals, visual observations of the tube contents are made for the existence of one or more liquid phases.

[6] = Solubility of Jasmone in the fluoroolefin, sealed glass tube, frozen and thawed; assay type: physicochemical
Protocol: The compositions of the present invention also provide advantage when used as part of, and in particular as a carrier for, flavor formulations and fragrance formulations. […] 1.73 grams of R-1234ze were added to the glass tube. The tube was then frozen and sealed. […] The solution contained 20 wt. % Jasome and 80 wt. % R-1234ze, thus establishing favorable use a carrier for flavor formulations and fragrances. It also establishes its potential as an extractant of biologically active compounds (such as Biomass) and fragrances, including from plant matter. In certain embodiments, it may be preferred to use the present composition for in extraction applications with the present fluid in its supercritical state. This an other applications of involving use of the present compositions in the supercritical or near supercritical state are described hereinafter.
Approximately 0.39 grams of Jasmone were put into a heavy walled glass tube and approximately 1.73 grams of transHFC-1233zd were added to the glass tube. The tube was then frozen and sealed. […] The solution contained about 20 wt. % Jasome and about 80 wt. % transHFCO-1233zd.
Approximately 0.39 grams of Jasmone are put into a heavy walled glass tube and approximately 1.73 grams of cisHFC-1233zd are added to the glass tube. The tube is then frozen and sealed. […] The solution contains about 20 wt. % Jasmone and about 80 wt. % cisHFCO-1233zd.

[7] = Dissolution of silicone lubricant in the solvent; assay type: physicochemical; details: silicone oil added to a concentration of about 10 weight percent
Protocol: A compound of Formula II, namely, transHFCO-1233zd was transferred to a glass container. A silicon lubricant, particularly a high-viscosity (12,500 cP) silicone oil, was added to the transHFCO-1233zd solvent to a concentration of about 10 weight percent.
A compound of Formula II, namely, cisHFCO-1233zd is transferred to a glass container. A silicon lubricant, particularly a high-viscosity (12,500 cP) silicone oil is added to the cisHFCO-1233zd solvent to a concentration of about 10 weight percent.
(§1) A combination of transHFCO-1233zd and trans-1,2-dichloroethylene are prepared in transHFCO-1233zd:trans-1,2-dichloroethylene weight ratios of 25:75 and 50:50. Each combination is then added to a glass container. A silicon lubricant, particularly a high-viscosity (12,500 cP) silicone oil is added to each solvent to a concentration of about 10 weight percent.
as §1, with “cisHFCO-1233zd” for “transHFCO-1233zd”, “cisHFCO-1233zd:trans-1,2-dichloroethylene” for “transHFCO-1233zd:trans-1,2-dichloroethylene”

[8] = Dissolution of synthetic PAG lubricant in the solvent; assay type: physicochemical; details: PAG lubricant ND-8; combinations in approximate weight ratios: /methanol 98:2, /pentane 96:4, /methanol/pentane 92:2:6
Protocol: A synthetic lubricant, specifically polyalkyleneglycol (PAG) lubricant, and more specifically a PAG consisting essentially of 2 or more oxypropylene groups and having a viscosity of from about 10 to about 200 centistokes at about 37° C. (sold under the trade designation ND-8 by Idemitsu Kosan) are added to a vial containing transHFCO-1233zd. […] The properties of the synthetic lubricant ND-8 are identified below in Table 11 below.
A synthetic lubricant, specifically polyalkyleneglycol (PAG) lubricant, and more specifically a PAG consisting essentially of 2 or more oxypropylene groups and having a viscosity of from about 10 to about 200 centistokes at about 37° C. (sold under the trade designation ND-8 by Idemitsu Kosan) are added to a vial containing cisHFCO-1233zd.
The PAG lubricant described in Example 45 above is added to vials containing, respectively, transHFCO-1233zd/methanol in an approximate 98:2 weight ratio, transHFCO-1233zd/pentane in an approximate 96:4 weight ration and transHFCO-1233zd/methanol/pentane in an approximate 92:2:6 weight ratio.
The PAG lubricant described in Example 45 above is added to vials containing, respectively, cisHFCO-1233zd/methanol in an approximate 98:2 weight ratio, cisHFCO-1233zd/pentane in an approximate 96:4 weight ration and cisHFCO-1233zd/methanol/pentane in an approximate 92:2:6 weight ratio.

solubility in cisHFCO-1233zd (soluble up to) ([1]; solvent cisHFCO-1233zd): approximately 3 weight percent | solubility in transHFCO-1233zd (soluble up to) ([1]; solvent transHFCO-1233zd): approximately 3 weight percent
Compound: C[C@@H]1CC[C@H]2[C@@H](C)C(=O)O[C@@H]3O[C@@]4(C)CC[C@@H]1[C@]32OO4 [Artemisinin]

Compound: FC(F)(Cl)Cl [CFC-12, Dichlorodifluoromethane]
visual observation of tube contents (stability with mineral oil and metals) [2]: severe decomposition

Compound: FC(F)(F)C=CCl [HCFO-1233zd, 1,1,1-trifluo-3,chloro-propene]
toxicity [3]: relatively low toxicity | flammability [4]: relatively low flammability

Compound: FC=C(F)C(F)(F)F [HFO-1225ye, 1,1,1,2,3 pentafluoropropene]
degree of toxicity in comparison to CF3CH═CF2 (HFO-1225zc) ([3]; pentafluoropropene with a hydrogen substituent on the terminal unsaturated carbon): relatively low degree of toxicity | miscibility with polyalkylene glycol ([5]; 50 weight percent concentration of the PAG in refrigerant, at 60°): miscible | miscibility with polyalkylene glycol ([5]; at 70° C., from 5 to 50 weight percent lubricant in refrigerant): miscible | miscibility with polyalkylene glycol ([5]; from −20 to 50° C.): partially miscible | miscibility with polyalkylene glycol ([5]; temperature range of −50° C. to −30° C.): immiscible

Compound: FC=CC(F)(F)F [HFO-1234ze, 1,1,1,3-tetrafluoropropene]
toxicity [3]: relatively low toxicity | flammability [4]: relatively low flammability

liquid phases of mixture with R-1234ze upon thawing ([6]; 0.39 grams Jasmone and 1.73 grams R-1234ze: 20 wt. % Jasmone, 80 wt. % R-1234ze): one liquid phase | solubility in cisHFCO-1233zd (soluble up to) ([6]; solvent cisHFCO-1233zd, one liquid phase): about 20 weight percent | solubility in transHFCO-1233zd (soluble up to) ([6]; solvent transHFCO-1233zd, one liquid phase): about 20 weight percent
Compound: CC/C=C\CC1=C(C)CCC1=O [Jasmone]

Compound: FC(F)(F)/C=C\Cl [transHFCO-1233zd, 1,1,1-trifluo,3-chlororopropene]
solution formed with silicone oil [7]: homogeneous, single-phase solution | concentration of PAG at which a homogeneous, single-phase solution is formed [8]: greater than 10 % by weight
